# Measurements: patent publication US8933195B2, “Histone deacetylase inhibitors and synthetic method thereof and use thereof in manufacture of medicaments” (Nanjing Yoko Biomedical R & D Ltd., priority 2011, dated 2015)
# Key:
# [1] = target: T1, HDAC7 (Homo sapiens, UniProt Q8WUI4); test: Measurement of biochemical activities of HDAC (fluorescently-labeled acetylated lysine substrate)
# T1 sequence (Q8WUI4 1-952): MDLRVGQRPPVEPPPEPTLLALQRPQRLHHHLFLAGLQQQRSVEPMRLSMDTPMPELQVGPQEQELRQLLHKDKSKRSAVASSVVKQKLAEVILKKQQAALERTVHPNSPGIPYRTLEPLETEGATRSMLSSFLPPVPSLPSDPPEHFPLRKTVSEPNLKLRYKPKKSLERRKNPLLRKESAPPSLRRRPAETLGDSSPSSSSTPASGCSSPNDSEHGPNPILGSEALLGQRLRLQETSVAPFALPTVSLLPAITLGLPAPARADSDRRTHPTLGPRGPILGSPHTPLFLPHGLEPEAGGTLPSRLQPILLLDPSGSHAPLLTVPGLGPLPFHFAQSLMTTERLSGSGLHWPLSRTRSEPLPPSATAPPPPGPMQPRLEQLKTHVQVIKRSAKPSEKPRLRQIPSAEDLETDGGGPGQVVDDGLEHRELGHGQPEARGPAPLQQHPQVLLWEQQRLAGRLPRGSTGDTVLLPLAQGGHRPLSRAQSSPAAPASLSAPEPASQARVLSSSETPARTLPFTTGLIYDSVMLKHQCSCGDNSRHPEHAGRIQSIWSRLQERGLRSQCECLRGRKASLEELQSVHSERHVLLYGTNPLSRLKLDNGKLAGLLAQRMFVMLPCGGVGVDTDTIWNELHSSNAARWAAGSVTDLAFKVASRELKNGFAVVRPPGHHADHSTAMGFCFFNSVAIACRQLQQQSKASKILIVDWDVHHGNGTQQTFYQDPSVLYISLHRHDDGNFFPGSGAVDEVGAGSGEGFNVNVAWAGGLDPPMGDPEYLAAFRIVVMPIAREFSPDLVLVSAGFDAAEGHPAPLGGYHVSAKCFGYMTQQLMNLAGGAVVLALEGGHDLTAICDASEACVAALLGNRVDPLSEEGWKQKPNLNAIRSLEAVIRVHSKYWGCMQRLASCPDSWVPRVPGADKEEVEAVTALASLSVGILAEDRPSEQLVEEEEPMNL
# In short: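 For both HDAC isoforms, fluorescent acetyl-lysine substrate ([…] in reaction) incubated with enzyme and compounds for 30 min at 37; developer then added for 15 min at room temperature. Fluorescence read at excitation 360 nm, emission 460 nm.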
# [2] = system: human colon cancer HCT-116; test: Subcutaneously transplanted tumors in nude mice; type: in vivo, BALB/cA nude mice; parameters: key to RTV (mean ± SD): RTV = Vt/V0, tumor volume at time t over volume at d0; settings: for 1-T/C tumor inhibition rate: after three weeks; for RTV (mean ± SD) / TV (mean ± SD) d21: d21
# Method: The solvents are isopropanol and anhydrous ethanol (mixed in the volume ratio of 1:1). The test sample is dissolved with solvents and physiological saline in the ratio of 1:1 for use, and the above solvents and physiological saline are dissolved in the ratio of 1:1 as a negative control.
# The number of mice in each group: 12 mice in the negative control group, and 6 mice in the administration group.
# The cell strains are inoculated to the right axilla subcutaneous layer of the nude mice, with 5×10^6 per mouse. After formed, the transplanted tumors are passed down two generations in the nude mice and then used.
# Tumor tissues in the vigorous growth period are cut into about 1.5 mm^3, and inoculated to the right axilla subcutaneous layer of the nude mice under aseptic conditions. For the subcutaneously transplanted tumors of the nude mice, the diameter of the transplanted tumors is measured by a vernier caliper. The mice are randomly grouped after the tumors grow to 100-200 mm^3. […] The diameter of the transplanted tumors is measured twice per week in the whole experimental process, and meanwhile the weight of the mice is weighed. The calculation formula of tumor volume (TV) is TV=½×a×b^2, where a and b represent length and width, respectively.
# The relative tumor volume (RTV) is calculated according to the measured results, with the following calculation formula: RTV=Vt/V0, where V0 is the tumor volume obtained by measurement during administration in different cages (i.e., d0), Vt is the tumor volume obtained by measurement at each time. […] (Wc−WT)Wc×100%, where Wc is the tumor weight of the control group, and WT is the tumor weight of the treatment group.
# [3] = Table 2.1, 20 mg/kg q3d × 3w iv
# [4] = Table 1.1, 10 mg/kg q3d × 3w iv
# [5] = Table 1.1, 20 mg/kg q3d × 3w iv
structure (smiles),measurement,setting,value
C/C=C1\NC(=O)c2csc(n2)CNC(=O)C[C@@H](/C=C/CCSC(=O)CCCCCCC)OC(=O)[C@H](C(C)(C)C)NC1=O [Compound 1-6],IC50 HDAC7,[1],no activity
same,1-T/C tumor inhibition rate,[2]; [3],74.09%
same,TV (mean ± SD) d0,[2]; [3],121 ± 28 mm^3
same,Weight d0,[2]; [3],16.9 g
same,RTV (mean ± SD),[2]; [3],2.69 ± 1.82
same,TV (mean ± SD) d21,[2]; [3],326 ± 221 mm^3
same,Tumor Volume TV (mean ± SD) d 0,"[2]; Table 2.2, 20 mg/kg",120 ± 28 mm^3
same,Tumor Volume TV (mean ± SD) d 3,"[2]; Table 2.2, 20 mg/kg",129 ± 15 mm^3
same,Tumor Volume TV (mean ± SD) d 7,"[2]; Table 2.2, 20 mg/kg",156 ± 23 mm^3
same,Tumor Volume TV (mean ± SD) d 10,"[2]; Table 2.2, 20 mg/kg",195 ± 58 mm^3
same,Tumor Volume TV (mean ± SD) d 14,"[2]; Table 2.2, 20 mg/kg",249 ± 110 mm^3
same,Tumor Volume TV (mean ± SD) d 17,"[2]; Table 2.2, 20 mg/kg",265 ± 122 mm^3
same,Weight (mean ± SD) d 0,"[2]; Table 2.3, 20 mg/kg",16.9 ± 1.0 g
same,Weight (mean ± SD) d 3,"[2]; Table 2.3, 20 mg/kg",16.6 ± 1.8 g
same,Weight (mean ± SD) d 7,"[2]; Table 2.3, 20 mg/kg",15.9 ± 1.6 g
same,Weight (mean ± SD) d 10,"[2]; Table 2.3, 20 mg/kg",15.5 ± 1.6 g
same,Weight (mean ± SD) d 14,"[2]; Table 2.3, 20 mg/kg",14.8 ± 1.8 g
same,Weight (mean ± SD) d 17,"[2]; Table 2.3, 20 mg/kg",14.2 ± 1.7 g
same,Weight (mean ± SD) d 21,"[2]; Table 2.3, 20 mg/kg",13.1 ± 1.6 g
C/C=C1\NC(=O)c2csc(n2)CNC(=O)C[C@@H](/C=C/CCSC(=O)CCCCCCC)OC(=O)[C@H](Cc2ccccc2)NC1=O [Compound 1-7],IC50 HDAC7,[1],no activity
same,1-T/C tumor inhibition rate,[2]; [3],72.24%
same,TV (mean ± SD) d0,[2]; [3],115 ± 20 mm^3
same,Weight d0,[2]; [3],16.6 g
same,RTV (mean ± SD),[2]; [3],2.89 ± 1.62
same,TV (mean ± SD) d21,[2]; [3],332 ± 186 mm^3
same,Tumor Volume TV (mean ± SD) d 0,"[2]; Table 2.2, 20 mg/kg",116 ± 21 mm^3
same,Tumor Volume TV (mean ± SD) d 3,"[2]; Table 2.2, 20 mg/kg",131 ± 11 mm^3
same,Tumor Volume TV (mean ± SD) d 7,"[2]; Table 2.2, 20 mg/kg",158 ± 26 mm^3
same,Tumor Volume TV (mean ± SD) d 10,"[2]; Table 2.2, 20 mg/kg",199 ± 68 mm^3
same,Tumor Volume TV (mean ± SD) d 14,"[2]; Table 2.2, 20 mg/kg",245 ± 107 mm^3
same,Tumor Volume TV (mean ± SD) d 17,"[2]; Table 2.2, 20 mg/kg",275 ± 132 mm^3
same,Weight (mean ± SD) d 0,"[2]; Table 2.3, 20 mg/kg",16.6 ± 1.1 g
same,Weight (mean ± SD) d 3,"[2]; Table 2.3, 20 mg/kg",15.9 ± 0.7 g
same,Weight (mean ± SD) d 7,"[2]; Table 2.3, 20 mg/kg",15.1 ± 0.9 g
same,Weight (mean ± SD) d 10,"[2]; Table 2.3, 20 mg/kg",14.5 ± 1.2 g
same,Weight (mean ± SD) d 14,"[2]; Table 2.3, 20 mg/kg",14.0 ± 1.0 g
same,Weight (mean ± SD) d 17,"[2]; Table 2.3, 20 mg/kg",13.5 ± 1.0 g
same,Weight (mean ± SD) d 21,"[2]; Table 2.3, 20 mg/kg",13.2 ± 1.0 g
C/C=C1\NC(=O)c2csc(n2)CNC(=O)C[C@@H](/C=C/CCSC(=O)CCCCCCC)OC(=O)[C@H](C(C)C)NC1=O [Compound 1-3],IC50 HDAC7,[1],no activity
same,1-T/C tumor inhibition rate,"[2]; Table 1.1, 5 mg/kg q3d × 3w iv",7.92%
same,TV (mean ± SD) d0,"[2]; Table 1.1, 5 mg/kg q3d × 3w iv",122 ± 25 mm^3
same,Weight d0,"[2]; Table 1.1, 5 mg/kg q3d × 3w iv",16.7 g
same,RTV (mean ± SD),"[2]; Table 1.1, 5 mg/kg q3d × 3w iv",9.56 ± 2.44
same,TV (mean ± SD) d21,"[2]; Table 1.1, 5 mg/kg q3d × 3w iv",1166 ± 201 mm^3
same,1-T/C tumor inhibition rate,[2]; [4],39.71%
same,TV (mean ± SD) d0,[2]; [4],120 ± 19 mm^3
same,Weight d0,[2]; [4],17.5 g
same,RTV (mean ± SD),[2]; [4],6.26 ± 3.33
same,TV (mean ± SD) d21,[2]; [4],751 ± 244 mm^3
same,1-T/C tumor inhibition rate,[2]; [5],70.26%
same,TV (mean ± SD) d0,[2]; [5],116 ± 26 mm^3
same,Weight d0,[2]; [5],16.7 g
same,RTV (mean ± SD),[2]; [5],3.09 ± 3.14
same,TV (mean ± SD) d21,[2]; [5],358 ± 201 mm^3
same,Tumor Volume TV (mean ± SD) d 0,"[2]; Table 1.2, 5 mg/kg",122 ± 25 mm^3
same,Tumor Volume TV (mean ± SD) d 3,"[2]; Table 1.2, 5 mg/kg",179 ± 15 mm^3
same,Tumor Volume TV (mean ± SD) d 7,"[2]; Table 1.2, 5 mg/kg",343 ± 58 mm^3
same,Tumor Volume TV (mean ± SD) d 10,"[2]; Table 1.2, 5 mg/kg",454 ± 41 mm^3
same,Tumor Volume TV (mean ± SD) d 14,"[2]; Table 1.2, 5 mg/kg",605 ± 60 mm^3
same,Tumor Volume TV (mean ± SD) d 17,"[2]; Table 1.2, 5 mg/kg",895 ± 138 mm^3
same,Tumor Volume TV (mean ± SD) d 0,"[2]; Table 1.2, 10 mg/kg",120 ± 19 mm^3
same,Tumor Volume TV (mean ± SD) d 3,"[2]; Table 1.2, 10 mg/kg",163 ± 38 mm^3
same,Tumor Volume TV (mean ± SD) d 7,"[2]; Table 1.2, 10 mg/kg",217 ± 67 mm^3
same,Tumor Volume TV (mean ± SD) d 10,"[2]; Table 1.2, 10 mg/kg",302 ± 105 mm^3
same,Tumor Volume TV (mean ± SD) d 14,"[2]; Table 1.2, 10 mg/kg",408 ± 70 mm^3
same,Tumor Volume TV (mean ± SD) d 17,"[2]; Table 1.2, 10 mg/kg",571 ± 175 mm^3
same,Tumor Volume TV (mean ± SD) d 0,"[2]; Table 1.2, 20 mg/kg",116 ± 26 mm^3
same,Tumor Volume TV (mean ± SD) d 3,"[2]; Table 1.2, 20 mg/kg",129 ± 10 mm^3
same,Tumor Volume TV (mean ± SD) d 7,"[2]; Table 1.2, 20 mg/kg",155 ± 28 mm^3
same,Tumor Volume TV (mean ± SD) d 10,"[2]; Table 1.2, 20 mg/kg",193 ± 68 mm^3
same,Tumor Volume TV (mean ± SD) d 14,"[2]; Table 1.2, 20 mg/kg",245 ± 117 mm^3
same,Tumor Volume TV (mean ± SD) d 17,"[2]; Table 1.2, 20 mg/kg",275 ± 112 mm^3
same,Weight (mean ± SD) d 0,"[2]; Table 1.3, 5 mg/kg",16.7 ± 0.6 g
same,Weight (mean ± SD) d 3,"[2]; Table 1.3, 5 mg/kg",15.9 ± 0.7 g
same,Weight (mean ± SD) d 7,"[2]; Table 1.3, 5 mg/kg",15.0 ± 0.9 g
same,Weight (mean ± SD) d 10,"[2]; Table 1.3, 5 mg/kg",14.5 ± 1.2 g
same,Weight (mean ± SD) d 14,"[2]; Table 1.3, 5 mg/kg",14.1 ± 1.0 g
same,Weight (mean ± SD) d 17,"[2]; Table 1.3, 5 mg/kg",13.5 ± 0.9 g
same,Weight (mean ± SD) d 21,"[2]; Table 1.3, 5 mg/kg",13.3 ± 1.0 g
same,Weight (mean ± SD) d 0,"[2]; Table 1.3, 10 mg/kg",17.5 ± 1.6 g
same,Weight (mean ± SD) d 3,"[2]; Table 1.3, 10 mg/kg",16.6 ± 1.9 g
same,Weight (mean ± SD) d 7,"[2]; Table 1.3, 10 mg/kg",15.8 ± 2.0 g
same,Weight (mean ± SD) d 10,"[2]; Table 1.3, 10 mg/kg",15.7 ± 2.0 g
same,Weight (mean ± SD) d 14,"[2]; Table 1.3, 10 mg/kg",14.8 ± 1.8 g
same,Weight (mean ± SD) d 17,"[2]; Table 1.3, 10 mg/kg",14.2 ± 1.7 g
same,Weight (mean ± SD) d 21,"[2]; Table 1.3, 10 mg/kg",13.5 ± 1.6 g
same,Weight (mean ± SD) d 0,"[2]; Table 1.3, 20 mg/kg",16.7 ± 0.5 g
same,Weight (mean ± SD) d 3,"[2]; Table 1.3, 20 mg/kg",16.1 ± 0.4 g
same,Weight (mean ± SD) d 7,"[2]; Table 1.3, 20 mg/kg",14.6 ± 0.4 g
same,Weight (mean ± SD) d 10,"[2]; Table 1.3, 20 mg/kg",14.7 ± 0.4 g
same,Weight (mean ± SD) d 14,"[2]; Table 1.3, 20 mg/kg",13.7 ± 0.3 g
same,Weight (mean ± SD) d 17,"[2]; Table 1.3, 20 mg/kg",13.0 ± 0.3 g
same,Weight (mean ± SD) d 21,"[2]; Table 1.3, 20 mg/kg",13.1 ± 0.6 g
